Common to all, as to type: organism-based
Data set [1] has as its system Zea mays. In words: Toxicity in Zea mays TZBSR (maize) assessed as plant height at 1.5 kg a.i/ha applied post-emergence after ridgining at minimum tillage conditions using Knapsack sprayer measured 9 weeks post treatment. As to conditions: in vivo, other, 1512 h.
For data set [2], the system named is Zea mays. In words: Toxicity in Zea mays TZBSR (maize) assessed as crop vigour at 1.5 kg a.i/ha applied post-emergence after ridgining at minimum tillage conditions using Knapsack sprayer. As to conditions: in vivo, other.
In data set [3] the test system is Zea mays. Briefly: Toxicity in Zea mays TZBSR (maize) assessed as crop injury at 1.5 kg a.i/ha applied post-emergence after ridgining at minimum tillage conditions using Knapsack sprayer. As to conditions: in vivo, other.
For data set [4], the system named is Zea mays. Briefly: Toxicity in Zea mays TZBSR (maize) assessed as crop stand count at 1.5 kg a.i/ha applied post-emergence after ridgining at minimum tillage conditions using Knapsack sprayer measured 6 weeks post treatment. As to conditions: in vivo, other, 1008 h.

Our source for the Activity values is ChEMBL document CHEMBL3046535, “Evaluation of some weed control treatments for long season weed control in maize (Zea mays L.) under zero and minimum tillage at Samaru, in Nigeria” (Crop Prot, 2008).

As to `CCNc1nc(Cl)nc(NC(C)C)n1` [ATRAZINE], the Activity is 3.35 m in data set [1], “Non-toxic” in data set [2] and “Non-toxic” in data set [3].

For the compound `O=C(O)COc1ccc(Cl)cc1Cl` [2,4-DICHLOROPHENOXYACETIC ACID], the Activity in data set [1] is reported as 3.33 m; in data set [2] it was “Non-toxic”; in data set [3] it was “Non-toxic”; in data set [4] it was “Non-toxic”.
